Experimental data published in patent US20060069123A1, “Substituted dipiperidine CCR2 antagonists” (priority 2004, published 2006).
pIC50: −log10 of the molar value. Like-named read-outs stand apart in the source and are kept apart here.

Tests used:
THP-1 cells [1] = conditions: Homo sapiens, THP-1, read-out: Inhibition of MCP-1 Induced Calcium Ion Influx IC50
CCR2 = target: T1, CCR2 (Homo sapiens, UniProt P41597)
T1 sequence (P41597 1-360 isoform P41597-2): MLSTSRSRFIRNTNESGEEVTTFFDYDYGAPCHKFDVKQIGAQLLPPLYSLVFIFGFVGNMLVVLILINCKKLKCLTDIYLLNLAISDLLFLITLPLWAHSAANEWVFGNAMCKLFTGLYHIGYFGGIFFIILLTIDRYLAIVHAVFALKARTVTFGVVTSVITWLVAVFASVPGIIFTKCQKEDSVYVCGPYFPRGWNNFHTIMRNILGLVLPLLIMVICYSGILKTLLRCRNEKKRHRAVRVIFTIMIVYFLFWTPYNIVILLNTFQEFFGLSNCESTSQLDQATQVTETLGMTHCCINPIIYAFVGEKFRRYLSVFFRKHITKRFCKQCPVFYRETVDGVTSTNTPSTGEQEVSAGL

THP-1 cells [2] = assay: MCP-1 Induced Chemotaxis in THP-1 Cells; assay type: cell-based; conditions: Homo sapiens; THP-1 cells, MCP-1 0.01 μg/mL, 3 hours; read-out: Inhibition of MCP-1 Induced Chemotaxis IC50

Compound	pIC50 (THP-1 cells [1])	pIC50 (CCR2)	pIC50 (THP-1 cells [2])
Nc1cc2c(C3CCN(C(C(=O)O)C4CCN(C(=O)/C=C/c5cc(F)c(F)c(F)c5)CC4)CC3)c[nH]c2cn1 (stereo not drawn) [Cpd 179, [4-(5-amino-1H-pyrrolo[2,3-c]pyridin-3-yl)-piperidin-1-yl]-{1-[(2E)-3-(3,4,5-trifluoro-phenyl)-acryloyl]-piperidin-4-yl}-acetic acid]	5.69	6.64	6.85
COc1ccc(C2CCN([C@H](CO)C3CCN(C(=O)/C=C/c4cc(F)cc(F)c4)CC3)CC2)cc1 [Cpd 180, (2E)-3-(3,5-difluoro-phenyl)-1-(4-{(1S)-2-hydroxy-1-[4-(4-methoxy-phenyl)-piperidin-1-yl]-ethyl}-piperidin-1-yl)-propenone]	6.92	7.15	7.05
COc1ccc(C2CCN([C@@H](CO)C3CCN(C(=O)/C=C/c4cc(F)cc(F)c4)CC3)CC2)cc1 [Cpd 181, (2E)-3-(3,5-difluoro-phenyl)-1-(4-{(1R)-2-hydroxy-1-[4-(4-methoxy-phenyl)-piperidin-1-yl]-ethyl}-1-piperidin-1-yl)-propenone]	6.80	7.40	7.15
O=C(/C=C/c1cc(F)cc(F)c1)N1CCC(C(CO)N2CCC(c3ccncc3)CC2)CC1 (stereo not drawn) [Cpd 182, (2E)-3-(3,5-difluoro-phenyl)-1-{4-[2-hydroxy-1-(3,4,5,6-tetrahydro-2H-[4,4′]bipyridinyl-1-yl)-ethyl]-piperidin-1-yl}-propenone]	5.10	6.48	6.46
O=C(/C=C/c1cc(F)c(F)c(F)c1)N1CCC(C(CO)N2CCC(c3ccncc3)CC2)CC1 (stereo not drawn) [Cpd 183, (2E)-1-{4-[2-hydroxy-1-(3,4,5,6-tetrahydro-2H-[4,4′]bipyridinyl-1-yl)-ethyl]-piperidin-1-yl}-3-(3,4,5-trifluoro-phenyl)-propenone]	5.03	6.33	6.40
O=C(/C=C/c1ccc(Cl)c(Cl)c1)N1CCC(C(CO)N2CCC(c3ccncc3)CC2)CC1 (stereo not drawn) [Cpd 185, (2E)-3-(3,4-dichloro-phenyl)-1-{4-[2-hydroxy-1-(3,4,5,6-tetrahydro-2H-[4,4′]bipyridinyl-1-yl)-ethyl]-piperidin-1-yl}-propenone]	5.34	6.08	6.47
O=C(/C=C/c1ccc(F)c(Br)c1)N1CCC(C(CO)N2CCC(c3ccncc3)CC2)CC1 (stereo not drawn) [Cpd 186, (2E)-3-(3-bromo-4-fluoro-phenyl)-1-{4-[2-hydroxy-1-(3,4,5,6-tetrahydro-2H-[4,4′]bipyridinyl-1-yl)-ethyl]-piperidin-1-yl}-propenone]	5.21	6.44	6.02
O=C(/C=C/c1cc(F)c(F)c(F)c1)N1CCC([C@@H](CO)N2CCC(c3c[nH]c4ccccc34)CC2)CC1 [Cpd 187, (2E)-1-(4-{(1S)-2-hydroxy-1-[4-(1H-indol-3-yl)-piperidin-1-yl]-ethyl}-piperidin-1-yl)-3-(3,4,5-trifluoro-phenyl)-propenone]	10.30	9.22	8.70
O=C(/C=C/c1cc(F)c(F)c(F)c1)N1CCC([C@H](CO)N2CCC(c3c[nH]c4ccccc34)CC2)CC1 [Cpd 188, (2E)-1-(4-{(1R)-2-hydroxy-1-[4-(1H-indol-3-yl)-piperidin-1-yl]-ethyl}-piperidin-1-yl)-3-(3,4,5-trifluoro-phenyl)-propenone]	8.00	7.53	7.70
O=C(/C=C/c1cc(F)c(F)c(F)c1)N1CCC(C(CO)N2CCC(c3ccc4c(c3)OCO4)CC2)CC1 (stereo not drawn) [Cpd 189, (2E)-1-{4-[1-(4-benzo[1,3]dioxol-5-yl-piperidin-1-yl)-2-hydroxy-ethyl]-piperidin-1-yl}-3-(3,4,5-trifluoro-phenyl)-propenone]	6.80	6.77	6.14
O=C(/C=C/c1cc(F)cc(F)c1)N1CCC(C(CO)N2CCC(c3ccc4c(c3)OCO4)CC2)CC1 (stereo not drawn) [Cpd 190]	6.60	6.68	6.70
Nc1ccc2[nH]cc(C3CCN(C(CO)C4CCN(C(=O)/C=C/c5cc(F)c(F)c(F)c5)CC4)CC3)c2n1 (stereo not drawn) [Cpd 191, (2E)-1-(4-{1-[4-(5-amino-1H-pyrrolo[3,2-b]pyridin-3-yl)-piperidin-1-yl]-2-hydroxy-ethyl}-piperidin-1-yl)-3-(3,4,5-trifluoro-phenyl)-propenone]	6.77	7.00	6.82
O=C(/C=C/c1cc(F)cc(F)c1)N1CCC(C(CO)N2CCC(c3ccc(F)cc3)CC2)CC1 (stereo not drawn) [Cpd 192, (2E)-3-(3,5-difluoro-phenyl)-1-(4-{1-[4-(4-fluoro-phenyl)-piperidin-1-yl]-2-hydroxy-ethyl}-piperidin-1-yl)-propenone]	6.77	6.66	6.46
O=C(/C=C/c1cc(F)c(F)c(F)c1)N1CCC(C(CO)N2CCC(c3ccc(F)cc3)CC2)CC1 (stereo not drawn) [Cpd 193]	6.85	6.85	5.89
CS(=O)(=O)Nc1ccc2[nH]cc(C3CCN(C(CO)C4CCN(C(=O)/C=C/c5ccc(Cl)c(Cl)c5)CC4)CC3)c2c1 (stereo not drawn) [Cpd 198, N-{3-[1-(1-{1-[(2E)-3-(3,4-dichloro-phenyl)-acryloyl]-piperidin-4-yl}-2-hydroxy-ethyl)-piperidin-4-yl]-1H-indol-5-yl}-methanesulfonamide]	10.70	9.22	9.70
CS(=O)(=O)Nc1ccc2[nH]cc(C3CCN(C(COC(=O)/C=C/c4cc(F)cc(F)c4)C4CCN(C(=O)/C=C/c5cc(F)cc(F)c5)CC4)CC3)c2c1 (stereo not drawn) [Cpd 199, (2E)-3-(3,5-difluoro-phenyl)-acrylic acid 2-{1-[(2E)-3-(3,5-difluoro-phenyl)-acryloyl]-piperidin-4-yl}-2-[4-(5-methanesulfonylamino-1H-indol-3-yl)-piperidin-1-yl]-ethyl ester]	8.40	7.70	7.52
CS(=O)(=O)Nc1ccc2[nH]cc(C3CCN(C(CO)C4CCN(C(=O)/C=C/c5cc(F)c(F)c(F)c5)CC4)CC3)c2c1 (stereo not drawn) [Cpd 201, N-{3-[1-(2-hydroxy-1-{1-[(2E)-3-(3,4,5-trifluoro-phenyl)-acryloyl]-piperidin-4-yl}-ethyl)-piperidin-4-yl]-1H-indol-5-yl}-methanesulfonamide]	9.22	9.00	8.52
O=C(/C=C/c1cc(F)cc(F)c1)N1CCC(C(CO)N2CCC(c3c[nH]c4ncccc34)CC2)CC1 (stereo not drawn) [Cpd 202, (2E)-3-(3,5-difluoro-phenyl)-1-(4-{2-hydroxy-1-[4-(1H-pyrrolo[2,3-b]pyridin-3-yl)-piperidin-1-yl]-ethyl}-piperidin-1-yl)-propenone]	8.10	7.71	7.82
COc1ccccc1C1CCN(C(CO)C2CCN(C(=O)/C=C/c3cc(F)cc(F)c3)CC2)CC1 (stereo not drawn) [Cpd 203, (2E)-3-(3,5-difluoro-phenyl)-1-(4-{2-hydroxy-1-[4-(2-methoxy-phenyl)-piperidin-1-yl]-ethyl}-piperidin-1-yl)-propenone]	5.30	6.29	5.92
O=C(/C=C/c1cc(F)cc(F)c1)N1CCC(C(CO)N2CCC(c3c[nH]c4c3ccc[n+]4[O-])CC2)CC1 (stereo not drawn) [Cpd 205, (2E)-3-(3,5-difluoro-phenyl)-1-(4-{2-hydroxy-1-[4-(7-oxy-1H-pyrrolo[2,3-b]pyridin-3-yl)-piperidin-1-yl]-ethyl}-piperidin-1-yl)-propenone]	7.70	7.40	7.40
O=C(O)C(C1CCN(C(=O)/C=C/c2cc(F)c(F)c(F)c2)CC1)N1CCC(c2c[nH]c3cccnc23)CC1 (stereo not drawn) [Cpd 207, [4-(1H-pyrrolo[3,2-b]pyridin-3-yl)-piperidin-1-yl]-{1-[(2E)-3-(3,4,5-trifluoro-phenyl)-acryloyl]-piperidin-4-yl}-acetic acid]	6.96	6.68	6.72
CC(=O)NCC(C1CCN(C(=O)/C=C/c2cc(F)cc(F)c2)CC1)N1CCC(c2c[nH]c3ccccc23)CC1 (stereo not drawn) [Cpd 214, N-{2-{1-[(2E)-3-(3,5-difluoro-phenyl)-acryloyl]-piperidin-4-yl}-2-[4-(1H-indol-3-yl)-piperidin-1-yl]-ethyl}-acetamide]	6.74	7.15	6.72
CC(=O)NCC(C1CCN(C(=O)/C=C/c2ccc(Cl)c(Cl)c2)CC1)N1CCC(c2c[nH]c3ccccc23)CC1 (stereo not drawn) [Cpd 215]	7.70	7.05	6.34
CC(=O)NCC(C1CCN(C(=O)/C=C/c2cccc(C)c2)CC1)N1CCC(c2c[nH]c3ccccc23)CC1 (stereo not drawn) [Cpd 216]	5.74	6.60	6.15
CC(=O)NCC(C1CCN(C(=O)Nc2ccc(Cl)c(Cl)c2)CC1)N1CCC(c2c[nH]c3ccccc23)CC1 (stereo not drawn) [Cpd 217]	5.70	6.68	6.21
CC(=O)OCC(C1CCN(C(=O)/C=C/c2cc(F)cc(F)c2)CC1)N1CCC(c2c[nH]c3ccccc23)CC1 (stereo not drawn) [Cpd 235, acetic acid 2-{1-[(2E)-3-(3,5-difluoro-phenyl)-acryloyl]-piperidin-4-yl}-2-[4-(1H-indol-3-yl)-piperidin-1-yl]-ethyl ester]	7.70	7.52	8.10
